Measurements from US8328934B2, “Crystal of GTP Cyclohydrolase Type IB” (priority 2007, dated 2012).
Like-named read-outs stand apart in the source and are kept apart here.

Tests used:
Format in all cases: biochemical
B. subtilis GCYH-IB [1] = target: T1, B. subtilis GCYH-IB (Bacillus subtilis, UniProt P94398); conditions: for relative activity (%): at the metal concentration for optimal activity, relative to Mn(II); for [Metal] (metal concentration for optimal activity): apoenzyme 2 μM, metal 0.1 μM-4 mM, 0.1 mM GTP; for metal ion supports catalysis: apoenzyme assayed with specific metal ions over a broad concentration range
T1 construct: His6 (cleaved yes); made in house; host or cells: E. coli BL21 (DE3), pET-30 Xa/LIC plasmid pSAB-9-61
T1 sequence (P94398 1-304): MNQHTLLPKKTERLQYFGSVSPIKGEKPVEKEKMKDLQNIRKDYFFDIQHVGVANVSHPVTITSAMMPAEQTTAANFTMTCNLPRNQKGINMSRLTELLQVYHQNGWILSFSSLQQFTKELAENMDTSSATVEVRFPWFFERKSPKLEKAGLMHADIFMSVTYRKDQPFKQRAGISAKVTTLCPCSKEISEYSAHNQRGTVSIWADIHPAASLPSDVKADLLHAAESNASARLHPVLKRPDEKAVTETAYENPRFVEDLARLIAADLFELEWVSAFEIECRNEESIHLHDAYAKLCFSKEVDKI
Procedure: It is well established that GCYH-IA uses a bound Zn^2+ ion for activity. Nichol et al., 1985. To investigate the metal dependence of GCYH-IB, the purified recombinant B. subtilis enzyme was assayed for activity in the presence of a variety of metal ions or EDTA. […] To obtain unambiguous, quantitative data on the effect of various metal ions on catalytic activity, the enzyme was first demetallated by dialyzing against an EDTA/Chelex-containing buffer to generate the apoenzyme, which was then assayed in the presence of specific metal ions over a broad concentration range.
(§1) Enzyme Activity Assays: All chemicals were of analytical, metal-free grade from Sigma or Fisher. All solutions were prepared with Milli-Q water (18.2 MΩ) and treated with Chelex-100 (BioRad) to remove contaminating metals. Glassware were soaked in nitric acid (10%), then EDTA (5 mM) and rinsed liberally with Chelex-treated Milli-Q water before use. Activity assays were conducted as described previously (El Yacoubi et al, 2006) using either variable concentrations of metal or EDTA (5 mM), and 0.1 mM GTP.
(§2) Apoenzyme Preparation: Metal ions were removed from B. subtilis and N. gonorrhoeae GCYH-IB by incubating the purified, recombinant protein (0.5 ml) with EDTA (5 mM, 1 hr, 21° C.) followed by dialysis thrice against a 4-liter solution of Tris-HCl (50 mM, pH 8.0), KCl (50 mM), EDTA (5 mM) and a few grams of Chelex-100. The resulting apoenzyme was dialyzed thrice against 3 L of Tris-HCl (50 mM, pH 8.0), KCl (50 mM), and Chelex-100 to remove EDTA and passed through Chelex-100 resin (5 ml protein solution per 3 ml resin) prior to activity assays. Protein concentrations were determined spectrophotometrically.
Metal Activation Studies: The B. subtilis apoenzyme (2 μM) was incubated with varying concentrations (0.1 μM-4 mM) of metal chlorides (MnCl2, ZnCl2, MgCl2, NiCl2, CaCl2, CdCl2, CoCl2, CuCl2, CoCl3, FeCl3) or Fe(SO4) in standard buffer (100 mM HEPES, pH 8.0, 100 mM KCl) for 10 min at 37 C, and assayed for activity as described above. All assays involving Fe^2+ were conducted in an anaerobic chamber with degassed and N2-purged buffers.

B. subtilis GCYH-IB [2] = target: T1, B. subtilis GCYH-IB; assay: Effect of zinc on GCYH-IB activity in the presence of Mn(II); conditions: 600 μM Mn(II)
Procedure: (§3) The presence of both Zn^2+ and Mn^2+ in a reaction assay results in diminished activity (i.e. Zn^2+ is an inhibitor versus Mn^2+, Table 6). All of the metals bind the enzymes with low affinity, such that running the protein over a G-25 column or dialyzing against metal free buffer removed the protein bound metal.
as §1, §2

N. gonorrhoeae GCYH-IB = target: T2, N. gonorrhoeae GCYH-IB (Neisseria gonorrhoeae, UniProt Q5F9K6); assay: as above; conditions: 600 μM Mn(II)
T2 construct: His6 (cleaved yes); made in house; host or cells: E. coli BL21 (DE3), pET-30 Xa/LIC plasmid pSAB-8-142
T2 sequence (Q5F9K6 1-257): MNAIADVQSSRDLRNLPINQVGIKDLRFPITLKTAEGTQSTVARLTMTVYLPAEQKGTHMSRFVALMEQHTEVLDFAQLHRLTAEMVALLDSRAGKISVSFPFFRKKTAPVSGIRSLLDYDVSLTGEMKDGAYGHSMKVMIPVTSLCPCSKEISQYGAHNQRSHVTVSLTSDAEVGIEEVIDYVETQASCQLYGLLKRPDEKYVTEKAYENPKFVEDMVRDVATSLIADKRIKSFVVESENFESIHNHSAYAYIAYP
Procedure: as §3, §1, §2

| Structure (SMILES) | relative activity (%) (B. subtilis GCYH-IB [1]) | [Metal] (metal concentration for optimal activity) (B. subtilis GCYH-IB [1]) | metal ion supports catalysis (B. subtilis GCYH-IB [1]) | also measured |
| --- | --- | --- | --- | --- |
| [Fe+3] [Fe(III)] | 0% | – | – | – |
| [Fe+2] [Fe(II)] | 75 ± 8% | 1000 µM | – | – |
| [Ni+2] [Ni(II)] | 9.8 ± 1.3% | 100 µM | catalysis is supported | – |
| O=C(O)CN(CCN(CC(=O)O)CC(=O)O)CC(=O)O [EDTA, reference compound] | – | – | – | activity in the presence of EDTA (B. subtilis GCYH-IB [1]): no activity was observed |
| [Co+2] [Co(II)] | 24 ± 3% | 100 µM | – | – |
| [Zn+2] [Zn(II)] | 14 ± 1% | 50 µM | catalysis is supported | optimum metal concentration required for catalysis, fold lower than for Mn^2+ (B. subtilis GCYH-IB [1]; Zn^2+ versus Mn^2+): roughly 10 fold; relative activity (%) (B. subtilis GCYH-IB [2]; 0.5 μM zinc): 84%; relative activity (%) (B. subtilis GCYH-IB [2]; 1 μM zinc): 41%; relative activity (%) (B. subtilis GCYH-IB [2]; 2 μM zinc): 34%; relative activity (%) (B. subtilis GCYH-IB [2]; 4 μM zinc): 35%; relative activity (%) (B. subtilis GCYH-IB [2]; 10 μM zinc): 35%; relative activity (%) (B. subtilis GCYH-IB [2]; 20 μM zinc): 26%; relative activity (%) (B. subtilis GCYH-IB [2]; 40 μM zinc): 23%; relative activity (%) (N. gonorrhoeae GCYH-IB; 0.5 μM zinc): 93%; relative activity (%) (N. gonorrhoeae GCYH-IB; 1 μM zinc): 68%; relative activity (%) (N. gonorrhoeae GCYH-IB; 2 μM zinc): 57%; relative activity (%) (N. gonorrhoeae GCYH-IB; 4 μM zinc): 47%; relative activity (%) (N. gonorrhoeae GCYH-IB; 10 μM zinc): 53%; relative activity (%) (N. gonorrhoeae GCYH-IB; 20 μM zinc): 45%; relative activity (%) (N. gonorrhoeae GCYH-IB; 40 μM zinc): 45% |
| [Cd+2] [Cd(II)] | 0% | – | fail to support activity | – |
| [Co+3] [Co(III)] | 0% | – | – | – |
| [Ca+2] [Ca(II)] | 0% | – | fail to support activity | – |
| [Cu+2] [Cu(II)] | 0% | – | fail to support activity | – |
| [Mg+2] [Mg(II)] | 43 ± 4% | 100 µM | catalysis is supported | – |
| [Mn+2] [Mn(II)] | 100% | 500 µM | catalysis is supported | – |
